Laboratory results reported in patent US20170334899A1, “AMINO-SUBSTITUTED ISOTHIAZOLES” (Bayer Pharma Aktiengesellschaft, priority 2014, published 2017).

Experiments:
Type in all cases: cell-based
[1] = test system: human cervical tumor cell line HeLa (ATCC CCL-2); experiment: SAC-Formation - Nocodazole-Induced Assay; settings: Homo sapiens, HeLa, 24 h, HeLa cells, nocodazole 0.1 μg/ml together with test compound, decrease of mitotic cells (phospho-histone H3 Ser10)
Procedure, shortened: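 HeLa cells, plated overnight, were treated 24 h at 37 °C with nocodazole (0.1 μg/ml final) plus test compound (0.005–20 μM, 0.5% DMSO) added at the same time. After fixation, anti-phospho-histone H3 Ser10 and Hoechst staining gave the mitotic cell fraction by imaging. Values came from four-parameter Hill fits.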

[2] = test system: human cervical tumor cell line HeLa (ATCC CCL-2); experiment: SAC-Formation - Paclitaxel-Induced Assay; settings: Homo sapiens, HeLa, 24 h, HeLa cells, paclitaxel 0.05 μM, test range 0.005 μM-20 μM, read-out: IC50 [mol/l] SAC-Formation - Paclitaxel-Induced Assay
Procedure, shortened: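 HeLa cells incubated overnight at 37° C, then given paclitaxel (0.05 μM final) plus test compound (0.005–20 μM, 0.5% DMSO) together for 24 h at 37° C. Fixed cells stained for phospho-histone H3 Ser10 (mitotic cells) and Hoechst 33342 (cell count); imaging-derived mitotic index fitted by four-parameter Hill equation.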

HeLa = experiment: Proliferation assay (crystal violet), HeLa; settings: Homo sapiens, HeLa, 96 h, HeLa cells; 4 days incubation; crystal violet staining; read-out: IC50 inhibition of proliferation, HeLa
Procedure, shortened: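 Tumor cells seeded at 1000–5000 cells/well in medium with 10% FCS; after 24 h, compounds added at 0.001–10 μM (0.5% DMSO) for 4 days. Cells fixed with glutaraldehyde, stained with crystal violet, dye dissolved in acetic acid and read at 595 nm. IC50 from 4-parameter fit, normalized to zero-point plate and untreated cells.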

Cc1nsc(Nc2cnc3ccccc3n2)c1C(=O)Nc1cccc(C(=O)NCCCN2CCOCC2)c1 [Example 95, 3-Methyl-N-(3-{[3-(morpholin-4-yl)propyl]carbamoyl}-phenyl)-5-(quinoxalin-2-ylamino)-1,2-thiazole-4-carboxamide]
IC50 [1]: 0.068 µM | IC50 [2]: 10 µM | IC50 (HeLa): 10 µM

Cc1nsc(Nc2cnc3ccccc3n2)c1C(=O)Nc1cccc(N)c1 [Example 450, N-(3-Aminophenyl)-3-methyl-5-(quinoxalin-2-ylamino)-1,2-thiazole-4-carboxamide]
IC50 [1]: 12 µM | IC50 [2]: 20 µM | IC50 (HeLa): > 10 µM
